# Laboratory results from paper PMC11336141.
# Bridge positions count the residues as written; N and C are the ends. Square brackets hold non-standard residues; d marks the D form. Peptide text beside a SMILES is read from it.
# Assays:
# [1] = test system: Dr-sstr2b; assay: PRESTO-Tango β-arrestin recruitment assay, Dr-sstr2b; format: cell-based, zebrafish (Danio rerio); conditions: for pEC50: Dr-sstr2b, Fig. S15D
# Excerpt: (§1) 3xHA-tagged human SSTR2 construct was obtained from cDNA.org (cDNA resource center, Bloomsburg PA, US). […] Kirill Martemyanov (University of Florida, US). Tango constructs for human SSTR1-5 were kind gifts from Prof. Bryan Roth (University of North Carolina, Chapel Hill, US) (Addgene kit # 1000000068). Tango constructs for fish Dr-sstr2a (sequence accession number: XP_005170178.1) and Dr-sstr2b (sequence accession number: XP_017210358.1) were custom-synthesized by Twist Biosciences using the Tango construct template as described in Kroeze et al., 2015[28]. 3xHA-tagged Dr-sstr2a and 3xHA tagged Dr-sstr2b constructs were inserted into pcDNA3.1 backbone. All DNA constructs were sequenced and confirmed prior to use.
# The assay was done as described in ref. [12].
# [2] = target: T1, human SSTR2 (Gi3) (Homo sapiens, UniProt P30874); assay: G protein activation (BRET dissociation) assay, Gi3 at hSSTR2; format: cell-based;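 as to Emax ± S.E.M.: percent of the maximal response to the reference somatostatin agonist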
# T1 construct: host or cells: HEK293T cells
# T1 sequence (P30874 whole entry): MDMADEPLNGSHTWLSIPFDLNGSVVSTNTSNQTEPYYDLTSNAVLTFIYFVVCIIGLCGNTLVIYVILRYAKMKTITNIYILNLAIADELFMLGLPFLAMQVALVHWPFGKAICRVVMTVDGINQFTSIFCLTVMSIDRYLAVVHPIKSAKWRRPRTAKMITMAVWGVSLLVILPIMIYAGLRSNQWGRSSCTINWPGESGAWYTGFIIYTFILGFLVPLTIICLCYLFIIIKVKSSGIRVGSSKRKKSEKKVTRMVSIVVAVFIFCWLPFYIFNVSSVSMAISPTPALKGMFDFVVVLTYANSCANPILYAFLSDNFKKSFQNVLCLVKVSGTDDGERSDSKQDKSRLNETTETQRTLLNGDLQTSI
# [3] = target: T2, human SSTR2 (GoB) (Homo sapiens, UniProt P30874); assay: G protein activation (BRET dissociation) assay, GoB at hSSTR2; format: cell-based;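 as to Emax ± S.E.M.: percent of the maximal response to the reference somatostatin agonist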
# T2 construct: host or cells: HEK293T cells
# T2 sequence (P30874 whole entry): as above
# [4] = test system: Dr-sstr2a (GoA); assay: G protein dissociation assay, GoA at Dr-sstr2a; format: cell-based, zebrafish (Danio rerio); conditions: HEK293T cells
# Excerpt: as §1
# Error bars represent means ± S.E.M. of n = 3 in technical duplicates.
# [5] = test system: Dr-sstr2a with the ECL2 region of the hSSTR2; assay: Activation of hybrid receptor (ECL2 of hSSTR2 inserted into Dr-sstr2a); format: cell-based; conditions: preliminary results, peer review file
# [6] = test system: human SSTR2 (Gi1-3, GoA, GoB); assay: G protein activation (BRET dissociation) assay, panel of Gi/o proteins at hSSTR2; format: cell-based; conditions: hSSTR2, HEK293T cells
# [7] = Solubility in aqueous solutions (observation); conditions: comparison of des-glyco nG1, pG1 and venom fraction
# [8] = target: T3, human SSTR2 (Homo sapiens, UniProt P30874); assay: PRESTO-Tango β-arrestin recruitment assay, hSSTR2
# T3 sequence (P30874 whole entry): as above
# [9] = target: T3, human SSTR2; assay: Quantification of ligand bias (operational model), G proteins at hSSTR2; format: cell-based; parameters: Bryan Roth (Addgene) Addgene kit # 1000000068; host or cells: HTLA cells; conditions: for ∆log(tau/Ka): LogR(ligand) - LogR(SST-14); for LogR ± S.E.M.: log(τ/KA); for RE: relative efficacy; for ∆LogR ± S.E.M.: relative to SS-14; for G protein bias in words: ∆Log(τ/KA), SS-14 as reference
# Excerpt: Ligand bias were quantified using the method described in[35]. […] The operational model (2)[35] was used to determine the transduction ratios (τ/KA).2 E=Emin+(Emax−Emin)/1+(1+A/10^logKA)/10^logRA^n where E is the effect of the ligand, [A] is the concentration of test ligands, Emax is the maximal response of the system, Emin is the minimum response of the system, logKA is the logarithm of the equilibrium dissociation constant, n is the slope of the transducer function, log R is the logarithm of the transduction ratio (τ/KA).
# Each experiment was analyzed using the operational model which all individual experiments were fitted with a global shared slope. The LogR (equivalent to log [τ] /KA) values were estimated by GraphPad Prism (v.9.4.1) and were used to calculate the relative efficacy (RE) using Eqs.
structure (smiles),measurement,setting,value
CC(C)C[C@H](N)C(=O)N[C@@H](Cc1ccccc1)C(=O)N[C@H]1CSSC[C@@H](C(=O)N[C@@H](Cc2c[nH]c3ccccc23)C(=O)O)NC(=O)[C@H](CO)NC(=O)[C@H](CCCCN)NC(=O)[C@@H](Cc2c[nH]c3ccccc23)NC(=O)[C@H](Cc2ccccc2)NC1=O [pG1] (H-LFCF[dW]KSCW-OH; disulfide 3-8),pEC50,[1]; replicate 1,7.529
same,pEC50,[1]; replicate 2,7.491
same,pEC50,[1]; replicate 3,7.611
same,pEC50,[1]; replicate 4,7.82
same,activation of Dr-sstr2b in words,"[1]; PRESTO-Tango, HTLA cells",activates the zebrafish Dr-sstr2b (n = 3) but not Dr-sstr2a
same,Hill Slope,[1]; Table S4,0.90 ± 0.13
same,Span ± S.E.M.,[1]; Table S4,82.46 ± 4.04
same,EC50,"[1]; Table S4, HTLA cells",25.3 nM
same,Emax ± S.E.M.,"[1]; Table S4, relative to SS-14",83.12 ± 3.13
same,Emax,[2],75.2 ± 7.38%
same,Hill Slope,"[2]; Table S2, Gαi3",0.70 ± 0.18
same,Span ± S.E.M.,"[2]; Table S2, Gαi3",75.57 ± 8.97
same,Emax,[3],76.7 ± 3.62%
same,Hill Slope,"[3]; Table S2, GαoB",1.46 ± 0.41
same,Span ± S.E.M.,"[3]; Table S2, GαoB",76.77 ± 4.97
same,EC50,"[3]; Table S2, GαoB, HEK293T, means ± S.E.M.",8.32 nM
same,GoA dissociation at Dr-sstr2a in words,[4],only induced GoA dissociation at the Dr-sstr2b but not the Dr-sstr2a
same,activation of hybrid receptor in words,[5],activation of this hybrid receptor
same,Gi/o protein dissociation in words,[6],weaker potencies at dissociating all Gi/o proteins compared to SS-14
same,Gi/o protein dissociation in words,[6]; listed as Consomatin pG1,weaker potencies in dissociating different Gαi/o protein compared to SS-14 and octreotide
same,solubility in aqueous solutions in words,[7],did not observe any obvious differences in the solubility
same,EC50,[8],3.55 nM
same,activation of hSSTR2 in words,"[8]; PRESTO-Tango, HTLA cells",potent and selective SSTR2 full agonist
same,Hill Slope,[8]; Table S1,0.50 ± 0.06
same,Span ± S.E.M.,[8]; Table S1,106.03 ± 6.98
same,Emax,"[8]; read-out: Emax ± S.E.M., Table S1, % of maximal response relative to SS-14",105 ± 3.01%
same,∆log(tau/Ka),[9]; Gi1 (Gαi1),-1.977
same,"LogR, Mean","[9]; Gi1, N: SS-14 4, Octreotide 2, pG1 4",7.421
same,LogR,"[9]; Gi1, replicate 1 (row r6)",7.197
same,LogR,"[9]; Gi1, replicate 2 (row r7)",7.651
same,LogR,"[9]; Gi1, replicate 3 (row r8)",7.8528
same,LogR,"[9]; Gi1, replicate 4 (row r9)",6.983
same,∆log(tau/Ka),[9]; Gi2 (Gαi2),-1.482
same,"LogR, Mean","[9]; Gi2, N: SS-14 5, Octreotide 3, pG1 5",7.871
same,LogR,"[9]; Gi2, replicate 1 (row r6)",7.692
same,LogR,"[9]; Gi2, replicate 2 (row r7)",7.679
same,LogR,"[9]; Gi2, replicate 3 (row r8)",7.686
same,LogR,"[9]; Gi2, replicate 4 (row r9)",8.256
same,LogR,"[9]; Gi2, replicate 5 (row r10)",8.0434
same,∆log(tau/Ka),[9]; Gi3 (Gαi3),-1.406
same,"LogR, Mean","[9]; Gi3, N: SS-14 3, Octreotide 2, pG1 3",8.305
same,LogR,"[9]; Gi3, replicate 1 (row r6)",7.832
same,LogR,"[9]; Gi3, replicate 2 (row r7)",8.615
same,LogR,"[9]; Gi3, replicate 3 (row r8)",8.468
same,∆log(tau/Ka),[9]; GoA (GαoA),-1.083
same,"LogR, Mean","[9]; GoA, N: SS-14 4, Octreotide 2, pG1 2",8.753
same,LogR,"[9]; GoA, replicate 1 (row r6)",8.653
same,LogR,"[9]; GoA, replicate 4 (row r9)",8.853
same,∆log(tau/Ka),[9]; GoB (GαoB),-1.118
same,"LogR, Mean","[9]; GoB, N: SS-14 2, Octreotide 2, pG1 3",8.505
same,LogR,"[9]; GoB, replicate 1 (row r6)",8.36
same,LogR,"[9]; GoB, replicate 2 (row r7)",8.764
same,LogR,"[9]; GoB, replicate 3 (row r8)",8.39
same,LogR ± S.E.M.,[9]; Gαi1,7.42 ± 0.20
same,RE,"[9]; Gαi1, 10^∆log(τ/KA)",0.01
same,∆LogR ± S.E.M.,[9]; Gαi1,-1.98 ± 0.27
same,LogR ± S.E.M.,[9]; Gαi2,7.87 ± 0.12
same,RE,[9]; Gαi2,0.033
same,∆LogR ± S.E.M.,[9]; Gαi2,-1.48 ± 0.31
same,LogR ± S.E.M.,[9]; Gαi3,8.30 ± 0.24
same,RE,[9]; Gαi3,0.039
same,∆LogR ± S.E.M.,[9]; Gαi3,-1.41 ± 0.26
same,LogR ± S.E.M.,[9]; GαoA,8.75 ± 0.10
same,RE,[9]; GαoA,0.082
same,∆LogR ± S.E.M.,[9]; GαoA,-1.08 ± 0.13
same,LogR ± S.E.M.,[9]; GαoB,8.50 ± 0.13
same,RE,[9]; GαoB,0.076
same,∆LogR ± S.E.M.,[9]; GαoB,-1.12 ± 0.14
same,G protein bias in words,[9],does not bias towards Gi1 protein but preferentially couples to GoA and GoB protein
same,G protein bias in words,[9]; listed as Consomatin pG1,displays G protein bias towards Go subunits
